According to ChEMBL document CHEMBL5727717, “ABHD6 and dual ABHD6/MGL inhibitors and their uses” (2020):

What was measured:
[1] = molecular target: T1, Monoglyceride lipase (Homo sapiens, UniProt Q99685); assay: This medium throughput assay involved a 96-well plate format in which hMGL activity was monitored by the hydrolysis of the substrate 7-hydroxy-6-methoxy-4-methylcoumarin ester (AHMMCE) to form the fluorescent product, coumarin. […] Upon the addition of AHMMCE, the reaction was incubated at 25° C. for 120 min; fluorescence readings were taken every 15 min at 360 nm/460 nm (λexcitation/λemission) using a Synergy HT Plate Reader (Bio-Tek, Winooski, Vt.). […] External standards were used to convert relative fluorescence units to the amount of 4-methylcoumarin formed.
T1 sequence (Q99685 whole entry): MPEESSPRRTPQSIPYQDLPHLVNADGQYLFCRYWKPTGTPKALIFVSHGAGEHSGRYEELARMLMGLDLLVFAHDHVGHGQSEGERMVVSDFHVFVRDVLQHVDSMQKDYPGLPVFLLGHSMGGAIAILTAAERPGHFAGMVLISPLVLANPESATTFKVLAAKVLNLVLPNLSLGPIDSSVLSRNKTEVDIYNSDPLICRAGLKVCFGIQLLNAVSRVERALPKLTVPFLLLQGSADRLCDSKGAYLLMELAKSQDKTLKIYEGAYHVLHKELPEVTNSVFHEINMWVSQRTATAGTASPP

[2] = Fluorescent Assay: hABHD6:Initial Fluorescent Inhibition Assay (3-Point)—In each well of a 96-well plate 8 μL of membrane fraction containing full-length hABHD6 (1 μg total protein) was mixed with 168 μL of assay buffer (50 mM Tris-HCl, pH 7.6), and 20 μL of diluted compound (diluted in a dilution buffer consisting of 50% DMSO/50% assay buffer v/v). Each plate was incubated at RT for 15 minutes before adding 4 μL of 1 mM AHMMCE substrate (final concentration of 20 μM AHMMCE and final volume of 200 μL). The reaction was allowed to proceed for 1 hr at RT before the fluorescence was read at λex 360 nm and λem 460 nm and the inhibition calculated. Each experiment can test 8 compounds at three concentrations (usually 10 μM, 1 μM, and 100 nM).

IC50 [1] [nM] | IC50 [2] [nM] | SMILES
> 1000 |  | O=C(OC(C(F)(F)F)C(F)(F)F)N1Cc2ccc(N3CCS(=O)(=O)CC3)cc2C1
 | > 1000 | O=C(OC(C(F)(F)F)C(F)(F)F)N1CCC2(CC(OC(c3ccc(F)cc3)c3ccc(F)cc3)C2)C1 (configuration not stated)
